Laboratory results: paper PMC9213561, “3-nitroimidazo[1,2-b]pyridazine as a novel scaffold for antiparasitics with sub-nanomolar anti-Giardia lamblia activity” (International Journal for Parasitology: Drugs and Drug …, 2022)
Counter-ions that a name gives are not always drawn. Like-named read-outs stand apart in the source and are kept apart here.

How the values were obtained:
[1] = system: MRC-5 (human lung fibroblasts MRC-5SV40); assay: Cytotoxicity on MRC-5 cells; format: cell-based
Method: (§1) G. lamblia trophozoites (WBC6) were seeded into 96-well-plates in 0.2 mL […]-medium containing 10^3 trophozoites per well in the presence of the compounds dissolved in dimethyl sulfoxide (DMSO, final concentration 0.25%) or with DMSO as a solvent control and incubated for 72 h at 37 °C in an anaerobic chamber (80% N2, 10% H2, 10% CO2). Then, plates were centrifuged (2 min, 1000 rpm), medium was removed, and cells were washed once with PBS containing 1 g/L glucose. Then, PBS-glucose containing 10 mg/L resazurin was added, and plates were incubated for up to 5 h at 37 °C. Fluorescence reading (ex 530 nm/em 590 nm) was performed at various time points, and the linear increase of fluorescence was used as a marker for cell viability. IC50 values were calculated using the logit-log algorithm and are given as mean values with 95%-confidence intervals ([[…], 2019]). The assays for growth inhibition of T. b. brucei, T. cruzi, L. infantum, P. falciparum and MRC-5 (human lung fibroblasts MRC-5SV40) were previously described ([Blaazer et al., 2014]). PDE activity was determined exactly as described ([de Heuvel et al., 2021]; [Kunz et al., 2005], [2017b]). All assays were carried out in triplicates and no more than 20% substrate was hydrolyzed in all reactions. Compounds were dissolved in DMSO and the final DMSO concentration was 1% in all reaction mixes. Control reactions with DMSO alone were always included. Data were analyzed using the GraphPad Prism software package (v7.0, GraphPad, San Diego).

[2] = system: G. lamblia trophozoites (WBC6); assay: Growth inhibition of G. lamblia trophozoites (WBC6), resazurin viability read-out; format: cell-based, Giardia lamblia; settings: for IC50: Giardia duodenalis, WBC6 trophozoites, 72 h, anaerobic, mean ± standard error (95% CI, logit-log), quadruplicates, read-out: IC50 (nM) G.l.
Method: (§2) G. lamblia trophozoites (WBC6) were seeded into 96-well-plates in 0.2 mL Keister-medium containing 10^3 trophozoites per well in the presence of the compounds dissolved in dimethyl sulfoxide (DMSO, final concentration 0.25%) or with DMSO as a solvent control and incubated for 72 h at 37 °C in an anaerobic chamber (80% N2, 10% H2, 10% CO2). Then, plates were centrifuged (2 min, 1000 rpm), medium was removed, and cells were washed once with PBS containing 1 g/L glucose. Then, PBS-glucose containing 10 mg/L resazurin was added, and plates were incubated for up to 5 h at 37 °C. Fluorescence reading (ex 530 nm/em 590 nm) was performed at various time points, and the linear increase of fluorescence was used as a marker for cell viability. IC50 values were calculated using the logit-log algorithm and are given as mean values with 95%-confidence intervals ([Müller et al., 2020]; [Müller and Hemphill, 2013]; [Müller and Müller, 2019]). The assays for growth inhibition of T. b. brucei, T. cruzi, L. infantum, P. falciparum and MRC-5 (human lung fibroblasts MRC-5SV40) were previously described ([Blaazer et al., 2014]). PDE activity was determined exactly as described ([de Heuvel et al., 2021]; [Kunz et al., 2005], [2017b]). All assays were carried out in triplicates and no more than 20% substrate was hydrolyzed in all reactions. Compounds were dissolved in DMSO and the final DMSO concentration was 1% in all reaction mixes. Control reactions with DMSO alone were always included. Data were analyzed using the GraphPad Prism software package (v7.0, GraphPad, San Diego).
Figure S67. Representative drug susceptibility curves of G. lamblia WBC6. Trophozoites were grown anaerobically in the presence of various concentrations of 17 (red), 29 (blue) and the reference compound metronidazole (MET, black). After 72 h, growth of cells was monitored by a cell viability assay based on the reduction of resazurin to a pink fluorescent product. Measured fluorescence units were normalized to the DMSO control. Data points and error bars represent mean and standard error of 4 replicates.

Trypanosoma cruzi = assay: Growth inhibition of T. cruzi; format: cell-based; settings: mean ± standard deviation, n ≥ 2
Method: as §2

Leishmania infantum = assay: Growth inhibition of L. infantum; format: cell-based; settings: mean ± standard deviation, n ≥ 2
Method: as §2

Plasmodium falciparum = assay: Growth inhibition of P. falciparum; format: cell-based
Method: as §1

[3] = system: Trypanosoma brucei brucei; assay: Growth inhibition of T. b. brucei; format: cell-based; settings: mean ± standard deviation, n ≥ 2
Method: as §2

[4] = MRC5, mean ± standard deviation, n ≥ 2, read-out: IC50 (nM) MRC-5
[5] = mean ± standard deviation, n ≥ 2, read-out: IC50 (µM) P.f.
[6] = MRC5, Table S1, mean ± standard deviation, n ≥ 2, read-out: IC50 (µM) MRC-5

| IC50 [2] [nM] | IC50 (Trypanosoma cruzi) [µM] | IC50 (Leishmania infantum) [µM] | IC50 (Plasmodium falciparum; [5]) [µM] | IC50 [3] [µM] | SMILES | IC50 [1, 4] [nM] | IC50 [1, 6] [nM] | anti-Giardia activity (in words) [2] | difference in inhibiting growth of G. lamblia ([2]; 31 (non-nitro analogue) versus 23) | IC50 (Plasmodium falciparum; read-out: IC50 (µM) P.f.) [µM] |
| --- | --- | --- | --- | --- | --- | --- | --- | --- | --- | --- |
| 5.8 ± 0.9 | 39.9 ± 3.7 | > 64 | > 64 | > 64 | O=[N+]([O-])c1cnc2ccc(N3CCC(N4CCCC4)CC3)nn12 [Compound 25, 3-Nitro-6-(4-(pyrrolidin-1-yl)piperidin-1-yl)imidazo[1,2-b]pyridazine formate] | > 64000 |  |  |  |  |
| 10.3 ± 1.5 | 29.7 ± 5.7 | 46.9 ± 5.5 | > 64 | > 64 | COc1ccc(CN(C)c2ccc3ncc([N+](=O)[O-])n3n2)cc1 [Compound 30, N-(4-Methoxybenzyl)-N-methyl-3-nitroimidazo[1,2-b]pyridazin-6-amine] | > 64000 |  |  |  |  |
| 800 ± 100 |  |  |  |  | Cc1ncc([N+](=O)[O-])n1CCO [metronidazole, reference compound] |  |  |  |  |  |
| 1 ± 0.5 | 31.8 ± 12.1 | 32.5 | 0.7 ± 0.5 | > 64 | COc1cccc(COc2cc(C3=NN(C4CCN(c5ccc6ncc([N+](=O)[O-])n6n5)CC4)C(=O)[C@H]4CC=CC[C@@H]34)ccc2OC)c1 (relative stereo) [Compound 14, cis-4-(4-Methoxy-3-((3-methoxybenzyl)oxy)phenyl)-2-(1-(3-nitroimidazo[1,2-b]pyridazin-6-yl)piperidin-4-yl)-4a,5,8,8a-tetrahydrophthalazin-1(2H)-one] | > 64000 |  |  |  |  |
|  |  |  |  | 0.05 ± 0.02 | Cc1ccc(C(=O)Nc2ccc(S(=O)(=O)O)c3cc(S(=O)(=O)O)cc(S(=O)(=O)O)c23)cc1NC(=O)c1cccc(NC(=O)Nc2cccc(C(=O)Nc3cc(C(=O)Nc4ccc(S(=O)(=O)O)c5cc(S(=O)(=O)O)cc(S(=O)(=O)O)c45)ccc3C)c2)c1 [Suramine, suramin, reference compound] |  |  |  |  |  |
| 9.3 ± 0.6 | 2.2 | 25.9 ± 24.4 | 3 ± 1.9 | 2.1 | COc1ccc(C2=NN(C3CCN(c4ccc5ncc([N+](=O)[O-])n5n4)CC3)C(=O)[C@H]3CC=CC[C@@H]23)cc1OC1CCCC1 (relative stereo) [Compound 12, cis-4-(3-(Cyclopentyloxy)-4-methoxyphenyl)-2-(1-(3-nitroimidazo[1,2-b]pyridazin-6-yl)piperidin-4-yl)-4a,5,8,8a-tetrahydrophthalazin-1(2H)-one] | > 64000 |  |  |  |  |
| 2.3 ± 0.4 | > 64 | > 64 | > 64 | > 64 | O=[N+]([O-])c1cnc2ccc(N3CCCC3)nn12 [Compound 22, 3-Nitro-6-(pyrrolidin-1-yl)imidazo[1,2-b]pyridazine] | > 64000 |  |  |  |  |
|  | 2.5 ± 0.4 |  |  |  | O=C(Cn1ccnc1[N+](=O)[O-])NCc1ccccc1 [benznidazole, reference compound] |  |  |  |  |  |
| 2.8 ± 0.8 | 11.2 ± 7.9 | 30.6 ± 2.3 | 1.1 ± 0.5 | 1.4 ± 0.4 | COc1ccccc1COc1cc(C2=NN(C3CCN(c4ccc5ncc([N+](=O)[O-])n5n4)CC3)C(=O)[C@H]3CC=CC[C@@H]23)ccc1OC (relative stereo) [Compound 16, cis-4-(4-Methoxy-3-((2-methoxybenzyl)oxy)phenyl)-2-(1-(3-nitroimidazo[1,2-b]pyridazin-6-yl)piperidin-4-yl)-4a,5,8,8a-tetrahydrophthalazin-1(2H)-one] | 49000 | 48900 ± 21400 |  |  |  |
| 8.2 ± 1 | > 64 | > 64 | > 64 | > 64 | O=[N+]([O-])c1cnc2ccc(N3CCC(c4ccccc4)CC3)nn12 [Compound 26, 3-Nitro-6-(4-phenylpiperidin-1-yl)imidazo[1,2-b]pyridazine] | > 64000 |  |  |  |  |
| 0.7 ± 0.1 | > 64 | 35.3 ± 4 | > 64 | > 64 | O=[N+]([O-])c1cnc2ccc(N3CCN(c4ccccc4)CC3)nn12 [Compound 27, 3-Nitro-6-(4-phenylpiperazin-1-yl)imidazo[1,2-b]pyridazine] | > 64000 |  |  |  |  |
| 3.6 ± 0.8 | 32.3 ± 1.1 | > 64 | > 64 | > 64 | O=[N+]([O-])c1cnc2ccc(N3CCCCC3)nn12 [Compound 23, 3-Nitro-6-(piperidin-1-yl)imidazo[1,2-b]pyridazine] | 28100 |  |  |  |  |
| > 10000 | 38.4 ± 3.2 | > 64 | > 64 | > 64 | c1cn2nc(N3CCCCC3)ccc2n1 [Compound 31, 6-(Piperidin-1-yl)imidazo[1,2-b]pyridazine] | > 64000 |  | inactive | > 2,500 folds |  |
| 6.8 ± 1.5 | 2.1 | 8.1 | 2.1 ± 0.8 | 2.2 | COc1ccc(C2=NN(C3CCN(c4ccc5ncc([N+](=O)[O-])n5n4)CC3)C(=O)[C@H]3CC=CC[C@@H]23)cc1OCc1cccnc1 (relative stereo) [Compound 15, cis-4-(4-Methoxy-3-(pyridin-3-ylmethoxy)phenyl)-2-(1-(3-nitroimidazo[1,2-b]pyridazin-6-yl)piperidin-4-yl)-4a,5,8,8a-tetrahydrophthalazin-1(2H)-one] | 15000 | 14900 ± 11500 |  |  |  |
|  |  | 10.3 ± 1.3 |  |  | CCCCCCCCCCCCCCCCOP(=O)([O-])OCC[N+](C)(C)C [Miltefosine, miltefosine, reference compound] |  |  |  |  |  |
|  |  |  |  |  | CCN(CC)CCCC(C)Nc1ccnc2cc(Cl)ccc12 (stereo not shown) [Chloroquine, chloroquine, reference compound] |  |  |  |  | 0.1 ± 0.03 |
| 0.5 ± 0.1 | 8.6 ± 0.2 | > 64 | 23.4 ± 7.2 | 27.6 ± 4.2 | O=[N+]([O-])c1cnc2ccc(N3CCC(Cc4ccccc4)CC3)nn12 [Compound 28, 6-(4-Benzylpiperidin-1-yl)-3-nitroimidazo[1,2-b]pyridazine] | 7960 | 8000 ± 200 |  |  |  |
| 1.1 ± 0.2 | 18.9 ± 13.9 | 11.7 ± 1.4 | > 64 | 34.4 ± 2.4 | O=C(c1ccccc1)C1CCN(c2ccc3ncc([N+](=O)[O-])n3n2)CC1 [Compound 29, (1-(3-Nitroimidazo[1,2-b]pyridazin-6-yl)piperidin-4-yl)(phenyl)methanone] | > 64000 |  |  |  |  |

| SMILES | IC50 [2] [nM] | IC50 (Trypanosoma cruzi) [µM] | IC50 (Leishmania infantum) [µM] | IC50 (Plasmodium falciparum; [5]) [µM] | IC50 [3] [µM] | IC50 [1, 4] [nM] | IC50 [1, 6] [nM] | anti-Giardia activity (in words) [2] | difference in inhibiting growth of G. lamblia ([2]; 31 (non-nitro analogue) versus 23) | IC50 (Plasmodium falciparum; read-out: IC50 (µM) P.f.) [µM] |
| --- | --- | --- | --- | --- | --- | --- | --- | --- | --- | --- |
| COc1ccc(C2=NN(C3CCN(c4ccc5ncc([N+](=O)[O-])n5n4)CC3)C(=O)[C@H]3CC=CC[C@@H]23)cc1OCc1cccc([N+](=O)[O-])c1 (relative stereo) [Compound 13, cis-4-(4-Methoxy-3-((3-nitrobenzyl)oxy)phenyl)-2-(1-(3-nitroimidazo[1,2-b]pyridazin-6-yl)piperidin-4-yl)-4a,5,8,8a-tetrahydrophthalazin-1(2H)-one] | 1.2 ± 0.4 | > 64 | 32.5 | 1.6 ± 0.7 | > 64 | > 64000 |  |  |  |  |
| CN1CCN(c2ccc3ncc([N+](=O)[O-])n3n2)CC1 [Compound 24, 6-(4-Methylpiperazin-1-yl)-3-nitroimidazo[1,2-b]pyridazine formate] | 144 ± 31 | 33.5 ± 1.1 | > 64 | > 64 | > 64 | > 64000 |  |  |  |  |
